Several values for one entry are separate records, joined by “and”; a condition that tells them apart may be missing. Equal entries are not always repeated. Inconclusive results and toxic doses are left out. No stated cut-off is given here; in the data, active means T/C of 150% or more; inactive means T/C below 125%.
Test system: L1210 leukemia ip in BDF1 mice, survival T/C
Experiment: NCI In Vivo Anticancer Drug Screen. Data for tumor model L1210 Leukemia (intraperitoneal) in B6D2F1 (BDF1) mice
Conditions: endpoint: mean survival time, higher = longer survival
How it was run: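 Value reflects the ratio of survival in compound-treated mice to survival in vehicle-treated controls, with both groups carrying the same transplanted tumor.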

[1] = dose: 100.0 mg/kg/injection, schedule: Q01DX001 (ip), vehicle: carboxymethylcellulose (CMC)
[2] = dose: 100.0 mg/kg/injection, schedule: Q04DX002 (ip), vehicle: Klucel (hydroxypropylcellulose) (HPC)
[3] = dose: 200.0 mg/kg/injection, schedule: Q01DX001 (ip), vehicle: carboxymethylcellulose (CMC)
[4] = dose: 200.0 mg/kg/injection, schedule: Q04DX002 (ip), vehicle: Klucel (hydroxypropylcellulose) (HPC)
[5] = dose: 400.0 mg/kg/injection, schedule: Q04DX002 (ip), vehicle: Klucel (hydroxypropylcellulose) (HPC)
[6] = dose: 100.0 mg/kg/injection, schedule: Q01DX009 (ip), vehicle: saline with Tween-80
[7] = dose: 100.0 mg/kg/injection, schedule: Q04DX003 (ip), vehicle: saline
[8] = dose: 200.0 mg/kg/injection, schedule: Q01DX009 (ip), vehicle: saline with Tween-80
[9] = dose: 200.0 mg/kg/injection, schedule: Q04DX003 (ip), vehicle: saline
[10] = dose: 400.0 mg/kg/injection, schedule: Q04DX003 (ip), vehicle: saline
[11] = dose: 100.0 mg/kg/injection, schedule: Q04DX003 (ip), vehicle: Klucel (hydroxypropylcellulose) (HPC)
[12] = dose: 200.0 mg/kg/injection, schedule: Q04DX003 (ip), vehicle: Klucel (hydroxypropylcellulose) (HPC)
[13] = dose: 400.0 mg/kg/injection, schedule: Q04DX003 (ip), vehicle: Klucel (hydroxypropylcellulose) (HPC)
[14] = dose: 100.0 mg/kg/injection, schedule: Q01DX009 (ip), vehicle: saline
[15] = dose: 200.0 mg/kg/injection, schedule: Q01DX009 (ip), vehicle: saline
[16] = dose: 400.0 mg/kg/injection, schedule: Q01DX009 (ip), vehicle: saline
[17] = dose: 100.0 mg/kg/injection, schedule: Q01DX001 (ip), vehicle: saline
[18] = dose: 200.0 mg/kg/injection, schedule: Q01DX001 (ip), vehicle: saline
[19] = dose: 400.0 mg/kg/injection, schedule: Q01DX001 (ip), vehicle: saline
[20] = dose: 100.0 mg/kg/injection, schedule: Q01DX001 (ip), vehicle: Klucel (hydroxypropylcellulose) (HPC)
[21] = dose: 200.0 mg/kg/injection, schedule: Q01DX001 (ip), vehicle: Klucel (hydroxypropylcellulose) (HPC)
[22] = dose: 400.0 mg/kg/injection, schedule: Q01DX001 (ip), vehicle: Klucel (hydroxypropylcellulose) (HPC)
[23] = dose: 25.0 mg/kg/injection, schedule: Q01DX009 (ip), vehicle: saline
[24] = dose: 400.0 mg/kg/injection, schedule: Q01DX001 (ip), vehicle: carboxymethylcellulose (CMC)

Measured: T/C

O=[N+]([O-])c1ccc(O)c2ncccc12
inactive: dose: 25.0 mg/kg/injection, schedule: Q04DX002 (ip), vehicle: Klucel (hydroxypropylcellulose) (HPC) 102 % of control | dose: 50.0 mg/kg/injection, schedule: Q01DX001 (ip), vehicle: carboxymethylcellulose (CMC) 101 % of control | dose: 50.0 mg/kg/injection, schedule: Q01DX015 (ip), vehicle: saline 97 % of control | dose: 50.0 mg/kg/injection, schedule: Q04DX002 (ip), vehicle: Klucel (hydroxypropylcellulose) (HPC) 94 % of control and 102 % of control | [1] 109 % of control | dose: 100.0 mg/kg/injection, schedule: Q01DX015 (ip), vehicle: saline 93 % of control | [2] 94 % of control (2×) and 95 % of control | [3] 95 % of control | dose: 200.0 mg/kg/injection, schedule: Q01DX015 (ip), vehicle: saline 95 % of control | [4] 110 % of control | dose: 400.0 mg/kg/injection, schedule: Q01DX015 (ip), vehicle: saline 91 % of control | [5] 91 % of control

CC(C)C(O)C1(C)CC1 (stereo not given)
inactive: [6] 96 % of control | [7] 106 % of control | [8] 95 % of control | [9] 107 % of control | [10] 111 % of control

COc1cc([N+](=O)[O-])ccc1-c1c(C(=O)O)cccc1[N+](=O)[O-]
inactive: [11] 101 % of control | [12] 95 % of control | [13] 90 % of control

O=C(NCCCCC(NC(=O)c1ccccc1)C(=O)NCCCCCCCCCCNC(=O)C(CCCCNC(=O)c1ccccc1)NC(=O)c1ccccc1)c1ccccc1 (stereo not given)
inactive: dose: 10.0 mg/kg/injection, schedule: Q01DX Z (ip), vehicle: saline 100 % of control | dose: 30.0 mg/kg/injection, schedule: Q01DX Z (ip), vehicle: saline 90 % of control

CCOc1ccc2nc(C)cc(C)c2c1
inactive: [2] 98 % of control | [4] 112 % of control

CCOC(=O)Nc1ccccn1
inactive: [2] 100 % of control | [4] 103 % of control | [5] 92 % of control

C[Si](C)(C)Br
inactive: [14] 96 % of control | [15] 87 % of control | [16] 87 % of control

CC(=O)Nc1cc(Cl)ccc1SC1OC(COC(C)=O)C(OC(C)=O)C(OC(C)=O)C1OC(C)=O (stereo not given)
inactive: [17] 93 % of control | [18] 95 % of control | [19] 87 % of control

COC(=O)OCCOC(=O)OC
inactive: [14] 105 % of control | [7] 100 % of control | [15] 101 % of control | [9] 102 % of control | [16] 100 % of control | [10] 103 % of control

O=C(Nc1cccc(S(=O)(=O)F)c1)/C(=C/c1ccc([N+](=O)[O-])cc1)c1ccccc1
inactive: [20] 89 % of control | [21] 99 % of control | [22] 99 % of control

CCOC(=O)C(C#N)C1c2ccccc2Nc2ccccc21 (stereo not given)
inactive: dose: 50.0 mg/kg/injection, schedule: Q01DX009 (ip), vehicle: saline with Tween-80 98 % of control | [6] 95 % of control | [8] 91 % of control

Nn1cnnc1
inactive: [23] 93 % of control | dose: 50.0 mg/kg/injection, schedule: Q01DX009 (ip), vehicle: saline 103 % of control | [14] 86 % of control and 88 % of control | [7] 104 % of control | [9] 96 % of control | [10] 102 % of control

CCOC(=O)CC(C)=O.[Cu+2]
inactive: dose: 6.25 mg/kg/injection, schedule: Q01DX009 (ip), vehicle: saline 96 % of control | dose: 12.5 mg/kg/injection, schedule: Q01DX009 (ip), vehicle: saline 104 % of control | dose: 12.5 mg/kg/injection, schedule: Q04DX003 (ip), vehicle: Klucel (hydroxypropylcellulose) (HPC) 94 % of control | [23] 90 % of control | dose: 25.0 mg/kg/injection, schedule: Q04DX003 (ip), vehicle: Klucel (hydroxypropylcellulose) (HPC) 96 % of control

O=C(O)CCCCCN1C(=O)C2OC3C(=O)N(CCCCCC(=O)O)C(=O)C3C2C1=O (stereo not given)
inactive: dose: 100.0 mg/kg/injection, schedule: Q04DX003 (ip), vehicle: carboxymethylcellulose (CMC) 95 % of control | dose: 200.0 mg/kg/injection, schedule: Q04DX003 (ip), vehicle: carboxymethylcellulose (CMC) 95 % of control | dose: 400.0 mg/kg/injection, schedule: Q04DX003 (ip), vehicle: carboxymethylcellulose (CMC) 97 % of control

CC(=O)OC(C(=O)c1ccccc1)C(=O)c1ccccc1
inactive: [20] 88 % of control | [21] 108 % of control | [22] 88 % of control

Brc1cccc2c(I)cccc12
inactive: [1] 95 % of control | [3] 98 % of control | [24] 92 % of control

O=C(/C=C/c1ccccc1)OCc1ccccc1CN1CCCCC1
inactive: [2] 104 % of control | [4] 96 % of control | [5] 86 % of control

C=CCOC(=O)Nc1ccc(S(=O)(=O)CC)cc1
inactive: [1] 94 % of control | [3] 102 % of control | [24] 91 % of control

CN(C)c1ccc(/C=C/c2ccc(N(C)C)cc2)cc1
inactive: dose: 100.0 mg/kg/injection, schedule: Q01DX009 (ip), vehicle: Klucel (hydroxypropylcellulose) (HPC) 98 % of control | [11] 98 % of control | dose: 200.0 mg/kg/injection, schedule: Q01DX009 (ip), vehicle: Klucel (hydroxypropylcellulose) (HPC) 102 % of control | [12] 94 % of control | dose: 400.0 mg/kg/injection, schedule: Q01DX009 (ip), vehicle: Klucel (hydroxypropylcellulose) (HPC) 93 % of control | [13] 100 % of control

CC(=O)c1ccc(Br)cc1OCC(=O)O
inactive: dose: 100.0 mg/kg/injection, schedule: Q01DX009 (ip), vehicle: gum acacia 102 % of control | dose: 100.0 mg/kg/injection, schedule: Q04DX003 (ip), vehicle: gum acacia 97 % of control | dose: 200.0 mg/kg/injection, schedule: Q01DX009 (ip), vehicle: gum acacia 103 % of control | dose: 200.0 mg/kg/injection, schedule: Q04DX003 (ip), vehicle: gum acacia 92 % of control | dose: 400.0 mg/kg/injection, schedule: Q04DX003 (ip), vehicle: gum acacia 94 % of control

Cc1cc(SCc2ccccc2)cc(C)[o+]1
inactive: [17] 98 % of control | [18] 98 % of control | [19] 107 % of control
